Reference: patent US20160068883A1, “MICRO-FLUIDIC MIXER AND METHOD OF DETERMINING PATHOGEN INACTIVATION VIA ANTIMICROBIAL SOLUTIONS” (The United States of America, as represented by the …, priority 2014, published 2016)
“And” between values parts separate entries of the source, which are not always exact repeats. Equal values may be shown once.

Assays:
[1] = test system: E. coli O157:H7; test: E. coli O157:H7 inactivation by free chlorine in the micro-fluidic mixer (MPN enumeration); format: cell-based, Escherichia coli O157:H7 (RM4406, ATCC 700728)
[2] = test system: E. coli; test: Decimal reduction time (D-value) calculated from the Watson and Hom inactivation models; parameters: species or system Escherichia coli O157:H7
From the text: Kinetic modeling was also applied to simplify the complicated disinfection phenomena of produce wash system. Three models that are commonly used for studying bacterial disinfection kinetics with chemical-based disinfectant, including the Chick-Watson Model, the Hom Model, and the Selleck Model.
Watson developed an empirical logarithmic equation to relate the inactivation constant (k) to disinfectant concentration (C) and reaction time (t):
The Hom model is a generalized empirical equation of the Chick-Watson model considering chlorine disinfection as a pseudo first-order reaction:
The D-value here was calculated based on the empirical models developed in this study, namely the Watson model (equation 3) and the Hom model (equation 5). […] By increasing chlorine concentration to […], the D-value reduces to […] respectively.

OCl [free chlorine, hypochlorous acid]
contact time to achieve a 5-log reduction ([1]; 1 mg/L free chlorine): more than 1.2 second
log reduction of E. coli O157:H7 ([1]; 1.0 mg/L free chlorine, 0.25 second contact, suspension 1×10^8 CFU/mL): 0.14 log
log reduction of E. coli O157:H7 ([1]; 1.0 mg/L free chlorine, 1.00 second contact, suspension 1×10^8 CFU/mL): 4.97 log
contact time to achieve a 5-log reduction ([1]; 5 mg/L free chlorine): 0.50 second
contact time to achieve a 5-log reduction ([1]; 10 mg/L free chlorine): 0.25 second and 0.2 second
log reduction of E. coli O157:H7 ([1]; 10.0 mg/L free chlorine, 0.25 second contact): 5.77 log
contact time to achieve a 5-log reduction ([1]; 10 mg/L free chlorine, listed as chlorine): 0.2 second
contact time to achieve a 5-log reduction ([1]; 20 mg/L free chlorine): 0.25 second
bacterial survival in collected effluent (total pathogen inactivation control) ([1]; chlorine 50 mg/L, pathogen solution 10^8 MPN/mL, without dechlorinating solution): no bacterial survival detected
D-value (decimal reduction time, 90% / one log reduction) ([2]; 1 mg/L free chlorine): 28.06 milliseconds
D-value (decimal reduction time, 90% / one log reduction) ([2]; chlorine 5 (so in the source)): 5.72 milliseconds
D-value (decimal reduction time, 90% / one log reduction) ([2]; chlorine 10 (so in the source)): 2.87 milliseconds
D-value (decimal reduction time, 90% / one log reduction) ([2]; chlorine 20 (so in the source)): 1.43 milliseconds
